Several values for one entry are separate records, joined by “and”; a condition that tells them apart may be missing. Equal values may be shown once.
Experiments:
Dh-cParM1 [1] = target: T1, Dh-cParM1 (Desulfitobacterium hafniense, UniProt Q24VP4); parameters: gene DSY2109; conditions: 5 mM nucleotide (sedimentation); pH 7.5, Mg2+, 24 °C
T1 sequence (Q24VP4 1-369): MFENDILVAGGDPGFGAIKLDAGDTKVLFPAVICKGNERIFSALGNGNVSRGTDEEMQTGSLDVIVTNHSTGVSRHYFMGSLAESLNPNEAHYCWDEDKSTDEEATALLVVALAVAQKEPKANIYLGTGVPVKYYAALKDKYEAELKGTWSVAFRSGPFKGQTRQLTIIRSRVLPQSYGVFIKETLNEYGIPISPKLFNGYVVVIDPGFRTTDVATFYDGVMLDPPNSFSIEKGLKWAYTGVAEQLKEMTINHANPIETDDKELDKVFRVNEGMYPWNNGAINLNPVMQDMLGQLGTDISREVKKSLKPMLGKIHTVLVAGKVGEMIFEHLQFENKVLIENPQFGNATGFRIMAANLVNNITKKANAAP

Cb-cParM [2] = target: T2, Cb-cParM (Clostridium botulinum, UniProt A0A9Y2YAC8); conditions: polymerised with 3 mM ATP, 30 min; Mg2+; pH 7.5; 25 °C; nucleotide hydrolysed to ADP in the filament
T2 construct: gene EXN02_10840

Dh-cParM1 [3] = target: T1, Dh-cParM1; assay: cryo-EM structure of filament ([…] A); assay type: binding; parameters: gene DSY2109; synthetic gene, N- or C-side 8xHis tag with HRV 3C site, tag cut; E. coli BL21(DE3); polymerises into helical filaments; conditions: polymerised with 5 mM ATP; 40 mM HEPES pH 7.5, 400 mM KCl, 1 mM MgCl2; nucleotide state not unambiguous, ADP fits better
[4] = target: Dh-cParM1, chromosome-encoded ParM of the Desulfitobacterium hafniense Y51 Dh-cParMR-1 cassette (Desulfitobacterium hafniense Y51); assay: co-sedimentation
Cb-cParM [5] = target: T2, Cb-cParM; conditions: polymerised with 3 mM GTP, 30 min, class 1; Mg2+; pH 7.5; 25 °C; nucleotide hydrolysed to GDP in the filament
Cb-cParM [6] = target: T2, Cb-cParM; conditions: class 2 (30 min) and 1 min with 3 mM GTP; Mg2+; pH 7.5; 25 °C; low resolution, nucleotide likely GTP or GDP-Pi
Dh-cParM1 [7] = target: T1, Dh-cParM1; assay: polymerisation by sedimentation, EM; assay type: binding; parameters: gene DSY2109; synthetic gene, N- or C-side 8xHis tag with HRV 3C site, tag cut; E. coli BL21(DE3); polymerises into helical filaments; conditions: 5 mM nucleotide (sedimentation); pH 7.5, Mg2+, 24 °C

T2 sequence (A0A9Y2YAC8 1-285): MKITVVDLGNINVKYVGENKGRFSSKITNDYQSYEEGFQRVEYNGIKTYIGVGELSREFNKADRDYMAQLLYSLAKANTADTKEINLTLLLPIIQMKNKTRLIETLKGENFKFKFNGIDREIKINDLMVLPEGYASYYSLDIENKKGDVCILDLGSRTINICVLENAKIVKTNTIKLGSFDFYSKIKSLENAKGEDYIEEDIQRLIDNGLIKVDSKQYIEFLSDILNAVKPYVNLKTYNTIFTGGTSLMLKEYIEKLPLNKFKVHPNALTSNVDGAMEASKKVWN

Molecule: Nc1ncnc2c1ncn2[C@@H]1O[C@H](COP(=O)(O)OP(=O)(O)OP(=O)(O)O)[C@@H](O)[C@H]1O [ATP]
- polymerisation by light scattering, sedimentation, EM (Dh-cParM1 [1]): Dh-cParM1 polymerization induced by ATP was followed by light scattering

Molecule: Nc1ncnc2c1ncn2[C@@H]1O[C@H](COP(=O)(O)OP(=O)(O)O)[C@@H](O)[C@H]1O [ADP]
- cryo-EM structure of filament (3.9 A) (Cb-cParM [2]): indicating that the bound nucleotides had been hydrolyzed to ADP and GDP, respectively
- cryo-EM structure of filament (4.0 A) (Dh-cParM1 [3]): ADP appears to fit better into the cryoEM density map than ATP

Molecule: Dh-cParM1, chromosome-encoded ParM of the Desulfitobacterium hafniense Y51 Dh-cParMR-1 cassette (natural protein)
- residual concentration in the supernatants (compared with a critical concentration) [4]: 4 µM and 5 µM

Molecule: Nc1nc2c(ncn2[C@@H]2O[C@H](COP(=O)(O)OP(=O)(O)O)[C@@H](O)[C@H]2O)c(=O)[nH]1 [GDP]
- cryo-EM structure of filament (3.5 A) (Cb-cParM [5]): indicating that the bound nucleotides had been hydrolyzed to ADP and GDP, respectively

Molecule: Nc1nc2c(ncn2[C@@H]2O[C@H](COP(=O)(O)OP(=O)(O)OP(=O)(O)O)[C@@H](O)[C@H]2O)c(=O)[nH]1 [GTP]
- cryo-EM structure of filament (6.5 A and 8.6 A); Pi release also measured (Cb-cParM [6]): suggesting that they were in the state before the phosphate release
- polymerisation by sedimentation, EM (Dh-cParM1 [7]): Filaments were induced by the addition of ATP, GTP, and non-hydrolysable nucleotides
